Assay results as given in patent US10175256B2, “Compositions and methods utilizing lysophosphatidylcholine scaffolds” (National University Of Singapore, priority 2013, dated 2019).
Where “and” joins values, the source holds several entries; their conditions need not be identical. Equal entries are not always repeated.

Tested on: mouse Mfsd2a
Assay: Cell-based free fatty acid transport/uptake in Mfsd2a expressing HEK293 cells (mass spectrometry, TLC; Table 1)
Conditions: mock HEK293 cells, 100 uM fatty acid/BSA overnight
In short: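 HEK293 cells expressing mouse Mfsd2a, or mock controls, were incubated overnight with 100 μM BSA-complexed fatty acids. Lipids were extracted in hexane:isopropanol (3:2) and phospholipid species quantified by HPLC-MS/MS against spiked internal standards. For TLC, cells received 100 μM [^14C]-oleate overnight, and phospholipids and neutral lipids were resolved.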

CCCCCCCCCCCCCCCC(=O)O [Palmitic acid]
% DHA in PC + lysoPC: 0.04025% and 0.03837% and 0.03939% | % DHA in PE + lysoPE: 10.87% and 12.13% and 11.44% | % DHA in PI and lysoPI: 0.01445% and 0.01615% and 0.01441% | % DHA in PS: 0.1091% and 0.1184% and 0.1391% | LPI16:0 in total phospholipid: 0.004053 mol percent and 0.002611 mol percent and 0.002621 mol percent | LPI18:0 in total phospholipid: 0.0326 mol percent and 0.02611 mol percent and 0.03227 mol percent | LPI20:4 in total phospholipid: 0.002114 mol percent and 0.002121 mol percent and 0.002948 mol percent | LPI22:6 in total phospholipid: 0.009339 mol percent and 0.008648 mol percent and 0.007698 mol percent | Lyso PE16:0p in total phospholipid: 2.649 mol percent and 2.594 mol percent and 2.175 mol percent | Lyso PE18:0p in total phospholipid: 0.4161 mol percent and 0.4127 mol percent and 0.4189 mol percent | Lyso PE18:1p in total phospholipid: 0.2081 mol percent and 0.1327 mol percent and 0.1216 mol percent | Lyso PE20:0p in total phospholipid: 0.1803 mol percent and 0.2801 mol percent and 0.1892 mol percent | LysoPC16:0e in total phospholipid: 0.003391 mol percent and 0.004221 mol percent and 0.003565 mol percent | LysoPC16:0 in total phospholipid: 0.02383 mol percent and 0.02127 mol percent and 0.02008 mol percent | LysoPC16:1 in total phospholipid: 0.006406 mol percent and 0.00591 mol percent and 0.006781 mol percent | LysoPC18:0e in total phospholipid: 0.002449 mol percent and 0.002111 mol percent and 0.001826 mol percent | LysoPC18:0 in total phospholipid: 0.0065 mol percent and 0.007261 mol percent and 0.008694 mol percent | LysoPC18:1 in total phospholipid: 0.01564 mol percent and 0.01503 mol percent and 0.01617 mol percent | LysoPC18:2 in total phospholipid: 0.00179 mol percent and 0.001266 mol percent and 0.001826 mol percent | LysoPC20:4 in total phospholipid: 0.000565 mol percent and 0.000507 mol percent and 0.000435 mol percent | LysoPC22:5 in total phospholipid: 0.000565 mol percent and 0.000507 mol percent and 0.000609 mol percent | LysoPE16:1 in total phospholipid: 0.1387 mol percent and 0.1179 mol percent and 0.1351 mol percent | LysoPE18:0 in total phospholipid: 0.1248 mol percent and 0.1327 mol percent and 0.06756 mol percent | LysoPE18:1 in total phospholipid: 0.06936 mol percent and 0.1032 mol percent and 0.1081 mol percent | PC32:0e in total phospholipid: 1.801 mol percent and 1.766 mol percent and 1.854 mol percent | PC32:0 in total phospholipid: 2.545 mol percent and 2.525 mol percent and 2.567 mol percent | PC32:1e in total phospholipid: 2.44 mol percent and 2.388 mol percent and 2.446 mol percent | PC32:1 in total phospholipid: 9.659 mol percent and 9.461 mol percent and 9.558 mol percent | PC32:2 in total phospholipid: 1.526 mol percent and 1.443 mol percent and 1.528 mol percent | PC34:1e in total phospholipid: 4.963 mol percent and 4.847 mol percent and 4.905 mol percent | PC34:1 in total phospholipid: 19.9344 mol percent and 19.96 mol percent and 20.13 mol percent | PC34:2e in total phospholipid: 1.578 mol percent and 1.538 mol percent and 1.559 mol percent | PC34:2 in total phospholipid: 6.328 mol percent and 6.182 mol percent and 6.318 mol percent | PC34:3e in total phospholipid: 0.2382 mol percent and 0.2269 mol percent and 0.2367 mol percent | PC34:3 in total phospholipid: 0.6391 mol percent and 0.6013 mol percent and 0.6247 mol percent | PC36:1e in total phospholipid: 1.472 mol percent and 1.429 mol percent and 1.48 mol percent | PC36:1 in total phospholipid: 2.714 mol percent and 2.676 mol percent and 2.731 mol percent | PC36:2e in total phospholipid: 1.667 mol percent and 1.629 mol percent and 1.643 mol percent | PC36:2 in total phospholipid: 5.976 mol percent and 5.824 mol percent and 5.922 mol percent | PC36:3e in total phospholipid: 0.8048 mol percent and 0.7841 mol percent and 0.7962 mol percent | PC36:3 in total phospholipid: 1.196 mol percent and 1.137 mol percent and 1.173 mol percent | PC36:4e in total phospholipid: 0.4288 mol percent and 0.4113 mol percent and 0.4345 mol percent | PC36:4 in total phospholipid: 0.338 mol percent and 0.3342 mol percent and 0.3346 mol percent | PC36:5e in total phospholipid: 0.345 mol percent and 0.3295 mol percent and 0.3467 mol percent | PC36:5 in total phospholipid: 0.06048 mol percent and 0.05513 mol percent and 0.06303 mol percent | PC36:6 in total phospholipid: 0.04691 mol percent and 0.05294 mol percent and 0.05486 mol percent | PC38:1e in total phospholipid: 0.3684 mol percent and 0.3499 mol percent and 0.3643 mol percent | PC38:3e in total phospholipid: 0.4177 mol percent and 0.3847 mol percent and 0.3977 mol percent | PC38:3 in total phospholipid: 0.5512 mol percent and 0.5341 mol percent and 0.5477 mol percent | PC38:4e in total phospholipid: 0.4224 mol percent and 0.3985 mol percent and 0.4045 mol percent | PC38:4 in total phospholipid: 0.4716 mol percent and 0.4393 mol percent and 0.4567 mol percent | PC38:5e in total phospholipid: 0.3578 mol percent and 0.3449 mol percent and 0.3552 mol percent | PC38:5 in total phospholipid: 0.2477 mol percent and 0.2424 mol percent and 0.2561 mol percent | PC38:6 in total phospholipid: 0.174 mol percent and 0.1785 mol percent and 0.1847 mol percent | PC38:7 in total phospholipid: 0.1181 mol percent and 0.1149 mol percent and 0.1218 mol percent | PC40:1e in total phospholipid: 0.1903 mol percent and 0.1874 mol percent and 0.1969 mol percent | PC40:2e in total phospholipid: 0.2001 mol percent and 0.2004 mol percent and 0.2061 mol percent | PC40:3e in total phospholipid: 0.1401 mol percent and 0.1387 mol percent and 0.1449 mol percent | PC40:4e in total phospholipid: 0.1234 mol percent and 0.1193 mol percent and 0.1297 mol percent | PC40:5e in total phospholipid: 0.1139 mol percent and 0.1153 mol percent and 0.1197 mol percent | PC40:5 in total phospholipid: 0.09044 mol percent and 0.0835 mol percent and 0.08903 mol percent | PC40:6 in total phospholipid: 0.1315 mol percent and 0.1248 mol percent and 0.1282 mol percent | PC40:7 in total phospholipid: 0.1778 mol percent and 0.1711 mol percent and 0.1768 mol percent | PE32:1 in total phospholipid: 0.3976 mol percent and 0.2948 mol percent and 0.3603 mol percent | PE32:2 in total phospholipid: 0.111 mol percent and 0.1474 mol percent and 0.08107 mol percent | PE34:0 in total phospholipid: 0.1665 mol percent and 0.1867 mol percent and 0.1531 mol percent | PE34:1 in total phospholipid: 1.137 mol percent and 1.327 mol percent and 1.144 mol percent | PE34:2 in total phospholipid: 0.7398 mol percent and 0.9433 mol percent and 0.7927 mol percent | PE34p:1 in total phospholipid: 0.971 mol percent and 1.042 mol percent and 0.8107 mol percent | PE34p:2 in total phospholipid: 0.2589 mol percent and 0.2653 mol percent and 0.2702 mol percent | PE36:1 in total phospholipid: 1.322 mol percent and 1.425 mol percent and 1.18 mol percent | PE36:2 in total phospholipid: 1.822 mol percent and 1.936 mol percent and 1.702 mol percent | PE36:3 in total phospholipid: 0.4809 mol percent and 0.3636 mol percent and 0.4143 mol percent | PE36:4 in total phospholipid: 0.2219 mol percent and 0.2555 mol percent and 0.1711 mol percent | PE36p:1 in total phospholipid: 0.4994 mol percent and 0.3931 mol percent and 0.3603 mol percent | PE36p:2 in total phospholipid: 0.4531 mol percent and 0.5896 mol percent and 0.6485 mol percent | PE36p:3 in total phospholipid: 0.7305 mol percent and 0.7272 mol percent and 0.9548 mol percent | PE36p:4 in total phospholipid: 0.9617 mol percent and 0.9433 mol percent and 0.9458 mol percent | PE38:1 in total phospholipid: 0.3791 mol percent and 0.3046 mol percent and 0.3063 mol percent | PE38:2 in total phospholipid: 0.2589 mol percent and 0.2555 mol percent and 0.3423 mol percent | PE38:3 in total phospholipid: 0.6381 mol percent and 0.7959 mol percent and 0.5495 mol percent | PE38:4 in total phospholipid: 0.8693 mol percent and 0.9237 mol percent and 0.8647 mol percent | PE38:5 in total phospholipid: 0.3791 mol percent and 0.5405 mol percent and 0.4684 mol percent | PE38:6 in total phospholipid: 0.1665 mol percent and 0.1376 mol percent and 0.1531 mol percent | PE38p:0 in total phospholipid: 0.05548 mol percent and 0.08844 mol percent and 0.09008 mol percent | PE38p:1 in total phospholipid: 0.2034 mol percent and 0.226 mol percent and 0.2432 mol percent | PE38p:2 in total phospholipid: 0.2312 mol percent and 0.2948 mol percent and 0.3423 mol percent | PE38p:3 in total phospholipid: 0.7768 mol percent and 0.8352 mol percent and 0.7656 mol percent | PE38p:4 in total phospholipid: 1.036 mol percent and 0.8549 mol percent and 0.9998 mol percent | PE38p:5 in total phospholipid: 0.6381 mol percent and 0.7272 mol percent and 0.7026 mol percent | PE38p:6 in total phospholipid: 0.971 mol percent and 1.238 mol percent and 1.108 mol percent | PE40:3 in total phospholipid: 0.1202 mol percent and 0.1179 mol percent and 0.1621 mol percent | PE40:5 in total phospholipid: 0.1572 mol percent and 0.1376 mol percent and 0.2432 mol percent | PE40:6 in total phospholipid: 0.3052 mol percent and 0.3832 mol percent and 0.2702 mol percent | PE40p:4 in total phospholipid: 0.2959 mol percent and 0.2162 mol percent and 0.2973 mol percent | PE40p:5 in total phospholipid: 0.2312 mol percent and 0.285 mol percent and 0.3153 mol percent | PE40p:6 in total phospholipid: 0.5271 mol percent and 0.7272 mol percent and 0.6485 mol percent | PE42p:4 in total phospholipid: 0.07398 mol percent and 0.05896 mol percent and 0.08107 mol percent | PE42p:6 in total phospholipid: 0.1572 mol percent and 0.167 mol percent and 0.1441 mol percent | PE42p:7 in total phospholipid: 0.1942 mol percent and 0.1277 mol percent and 0.1621 mol percent | PI 32:1 in total phospholipid: 0.01674 mol percent and 0.0186 mol percent and 0.01785 mol percent | PI 32:2 in total phospholipid: 0.001586 mol percent and 0.001469 mol percent and 0.001965 mol percent | PI 34:1 in total phospholipid: 0.1071 mol percent and 0.1227 mol percent and 0.1299 mol percent | PI 34:2 in total phospholipid: 0.06502 mol percent and 0.06038 mol percent and 0.07305 mol percent | PI 36:1 in total phospholipid: 0.1544 mol percent and 0.1643 mol percent and 0.1769 mol percent | PI 36:2 in total phospholipid: 0.3593 mol percent and 0.3719 mol percent and 0.3898 mol percent | PI 36:3 in total phospholipid: 0.1695 mol percent and 0.1663 mol percent and 0.1785 mol percent | PI 36:4 in total phospholipid: 0.04176 mol percent and 0.03965 mol percent and 0.0416 mol percent | PI 38:2 in total phospholipid: 0.3441 mol percent and 0.3474 mol percent and 0.3631 mol percent | PI 38:3 in total phospholipid: 0.9296 mol percent and 0.9911 mol percent and 1.026 mol percent | PI 38:4 in total phospholipid: 0.3635 mol percent and 0.3967 mol percent and 0.3998 mol percent | PI 38:5 in total phospholipid: 0.05392 mol percent and 0.0483 mol percent and 0.04815 mol percent | PI 38:6 in total phospholipid: 0.0074 mol percent and 0.009628 mol percent and 0.007698 mol percent | PI 40:3 in total phospholipid: 0.02555 mol percent and 0.02627 mol percent and 0.02801 mol percent | PI 40:4 in total phospholipid: 0.01515 mol percent and 0.01599 mol percent and 0.01196 mol percent | PI 40:5 in total phospholipid: 0.004934 mol percent and 0.004895 mol percent and 0.009172 mol percent | PI 40:6 in total phospholipid: 0.007048 mol percent and 0.006527 mol percent and 0.006715 mol percent | PS(sum) in total phospholipid: 3.034 mol percent and 2.842 mol percent and 3.239 mol percent | PS:34:1 in total phospholipid: 0.4968 mol percent and 0.4486 mol percent and 0.5434 mol percent | PS:34:2 in total phospholipid: 0.04738 mol percent and 0.04492 mol percent and 0.04867 mol percent | PS:36:1 in total phospholipid: 1.269 mol percent and 1.209 mol percent and 1.375 mol percent | PS:36:2 in total phospholipid: 0.4595 mol percent and 0.4148 mol percent and 0.4611 mol percent | PS:36:3 in total phospholipid: 0.02585 mol percent and 0.02217 mol percent and 0.0262 mol percent | PS:36:4 in total phospholipid: 0.00359 mol percent and 0.006418 mol percent and 0.006239 mol percent | PS:38:2 in total phospholipid: 0.2312 mol percent and 0.2147 mol percent and 0.2602 mol percent | PS:38:3 in total phospholipid: 0.1522 mol percent and 0.1447 mol percent and 0.1566 mol percent | PS:38:4 in total phospholipid: 0.07467 mol percent and 0.08168 mol percent and 0.07674 mol percent | PS:40:4 in total phospholipid: 0.08328 mol percent and 0.06359 mol percent and 0.073 mol percent | PS:40:5 in total phospholipid: 0.06605 mol percent and 0.06534 mol percent and 0.05865 mol percent | PS:40:6 in total phospholipid: 0.09836 mol percent and 0.1038 mol percent and 0.1248 mol percent | PS:40:7 in total phospholipid: 0.01077 mol percent and 0.01459 mol percent and 0.01435 mol percent | Total PC + lysoPC in total phospholipid: 71.06 mol percent and 69.79 mol percent and 71.05 mol percent | Total PE + lysoPE in total phospholipid: 23.19 mol percent and 24.54 mol percent and 22.75 mol percent | Total PI + lysoPI in total phospholipid: 2.715 mol percent and 2.832 mol percent and 2.956 mol percent
